Results on 29 compounds are retold here after patent US20240083857A1, “2-Methyl-Quinazolines” (Bayer Pharma Aktiengesellschaft, priority 2017, published 2024).

Structures are written as SMILES. Where a name gives a salt, the structure may show the parent alone. Read-outs that look alike come from different tables or passages of the source.

Experiment [1] concerns the target Epidermal Growth Factor Receptor (EGFR) (Homo sapiens (Human), UniProt P00533). In words: EGFR kinase assay (TR-FRET). As to conditions: read-out: EGFR kinase inhibition IC50. The experiment is classed as biochemical. In a few lines:
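Read-out is the 665/620 nm HTRF ratio, from a Tb-cryptate anti-phosphotyrosine antibody and streptavidin-XL665 bound to phosphorylated biotin-peptide substrate. The enzyme, A431-derived EGFR (~3 U/ml), was given 15 min compound pre-binding at 22° C in Hepes pH 7.0 with Mg2+/Mn2+ before reaction.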

Experiment [2] addresses human SOS1 (loading of human K-Ras^G12C-GDP with fluorescent GTP-analog) (Homo sapiens, UniProt Q07889). In words: Biochemical assay 3: K-Ras^G12C activation assay by hSOS1 (HTRF). As to conditions: no GTP; read-out: Assay 3 (KRAS-Activation by SOS no GTP) activity expressed as IC50.

Epidermal Growth Factor Receptor (EGFR), sequence (P00533 25-1210): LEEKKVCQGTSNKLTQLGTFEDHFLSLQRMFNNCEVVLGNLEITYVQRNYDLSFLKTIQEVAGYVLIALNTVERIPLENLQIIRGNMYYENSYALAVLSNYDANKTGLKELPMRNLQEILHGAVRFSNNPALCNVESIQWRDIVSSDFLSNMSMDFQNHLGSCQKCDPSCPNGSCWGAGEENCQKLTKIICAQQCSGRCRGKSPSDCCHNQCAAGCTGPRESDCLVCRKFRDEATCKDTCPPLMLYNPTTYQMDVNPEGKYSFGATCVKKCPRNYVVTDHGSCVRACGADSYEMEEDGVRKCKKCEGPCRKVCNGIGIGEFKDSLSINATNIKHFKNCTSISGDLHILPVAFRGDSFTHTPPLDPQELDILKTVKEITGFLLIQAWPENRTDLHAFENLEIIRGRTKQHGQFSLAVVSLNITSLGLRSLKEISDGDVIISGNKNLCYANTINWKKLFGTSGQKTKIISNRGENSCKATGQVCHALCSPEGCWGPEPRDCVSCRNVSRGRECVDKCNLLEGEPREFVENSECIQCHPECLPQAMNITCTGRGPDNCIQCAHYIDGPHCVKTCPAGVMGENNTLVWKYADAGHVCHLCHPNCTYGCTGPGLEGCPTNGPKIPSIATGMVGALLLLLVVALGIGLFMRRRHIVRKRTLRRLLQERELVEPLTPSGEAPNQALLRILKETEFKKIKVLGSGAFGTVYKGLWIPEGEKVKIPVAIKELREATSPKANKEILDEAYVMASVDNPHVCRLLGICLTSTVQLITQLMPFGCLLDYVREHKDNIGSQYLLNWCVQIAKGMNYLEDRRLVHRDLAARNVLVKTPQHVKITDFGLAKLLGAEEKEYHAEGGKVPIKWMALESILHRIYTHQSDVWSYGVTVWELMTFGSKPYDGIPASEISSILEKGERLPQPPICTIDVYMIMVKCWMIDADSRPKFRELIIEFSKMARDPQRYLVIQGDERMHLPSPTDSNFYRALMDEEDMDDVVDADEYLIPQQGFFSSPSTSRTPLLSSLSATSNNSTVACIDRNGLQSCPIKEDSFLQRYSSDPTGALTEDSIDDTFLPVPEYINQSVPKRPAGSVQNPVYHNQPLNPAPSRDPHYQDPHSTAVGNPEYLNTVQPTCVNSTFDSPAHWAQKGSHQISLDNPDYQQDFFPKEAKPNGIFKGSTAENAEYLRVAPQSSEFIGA

On to `COc1cc2nc(C)nc(NC(C)c3ccc(-c4ccc(F)cc4CNC(=O)[C@@H]4CCCN4)s3)c2cc1OC` (stereo partly drawn) [Example 314, N-[2-(5-{1-[(6,7-dimethoxy-2-methylquinazolin-4-yl)amino]ethyl}thiophen-2-yl)-5-fluorobenzyl]-L-prolinamide], for which the results for the IC50 in experiment [1] (values given in μM) and in experiment [2] were more than 20 µM and 90.1 nM, respectively.

Consider `COc1cc2nc(C)nc(NC(C)c3cc(-c4ccc(F)cc4CN)cs3)c2cc1OC` (stereo not shown) [Example 269, N-[1-{4-[2-(aminomethyl)-4-fluorophenyl]thiophen-2-yl}ethyl]-6,7-dimethoxy-2-methylquinazolin-4-amine], for which the half-maximal inhibitory concentration (IC50) in experiment [1] (values given in μM) is more than 20 µM; in experiment [2], 135 nM.

Regarding `COc1cc2nc(C)nc(NC(C)c3ccc(-c4ccc(F)cc4CNCc4nccn4C)s3)c2cc1OC` (stereo not shown) [Example 304, N-[1-{5-[4-fluoro-2-({[(1-methyl-1H-imidazol-2-yl)methyl]amino}methyl)phenyl]thiophen-2-yl}ethyl]-6,7-dimethoxy-2-methylquinazolin-4-amine], the figures for the half-maximal inhibitory concentration (IC50) in experiment [1] (values given in μM) and in experiment [2] were more than 20 µM and 399 nM, respectively.

Take `COc1cc2nc(C)nc(NC(C)c3ccc(-c4ccccc4CNCC(F)F)s3)c2cc1OC` (stereo not shown) [Example 315, N-{1-[5-(2-{[(2,2-difluoroethyl)amino]methyl}phenyl)thiophen-2-yl]ethyl}-6,7-dimethoxy-2-methylquinazolin-4-amine]: the values for the 50% inhibitory concentration (IC50) in experiment [1] (values given in μM) and in experiment [2] were more than 20 µM and 1280 nM, respectively.

Regarding `COc1cc2nc(C)nc(NC(C)c3ccc(-c4ccccc4CNCC(=O)c4c[nH]c5ccccc45)s3)c2cc1OC` (stereo not shown) [Example 277, 2-{[2-(5-{1-[(6,7-dimethoxy-2-methylquinazolin-4-yl)amino]ethyl}thiophen-2-yl)benzyl]amino}-1-(1H-indol-3-yl)ethanone], the IC50 in experiment [1] (values given in μM) is more than 20 µM; in experiment [2], 263 nM.

In the case of `COc1cc2nc(C)nc(NC(C)c3ccc(-c4ccc(F)cc4CNC(=O)CNCC(F)(F)F)s3)c2cc1OC` (stereo not shown) [Example 295, N-[2-(5-{1-[(6,7-dimethoxy-2-methylquinazolin-4-yl)amino]ethyl}thiophen-2-yl)-5-fluorobenzyl]-N^2-(2,2,2-trifluoroethyl)glycinamide], the concentration for half-maximal inhibition (IC50) in experiment [1] (values given in μM) was more than 20 µM; in experiment [2] it was 2780 nM.

As to `COc1cc2nc(C)nc(N[C@H](C)c3cccc(CN)c3)c2cc1OC` [Example 260, N-{(1R)-1-[3-(aminomethyl)phenyl]ethyl}-6,7-dimethoxy-2-methylquinazolin-4-amine], the IC50 in experiment [1] (values given in μM) was more than 20 µM; in experiment [2] it was 5680 nM.

Consider `COc1cc2nc(C)nc(NC(C)c3ccc(-c4ccccc4OCCN4CCCC4)s3)c2cc1OC` (stereo not shown) [Example 325, 6,7-di methoxy-2-methyl-N-[1-(5-{2-[2-(pyrrolidin-1-yl)ethoxy]phenyl}thiophen-2-yl)ethyl]quinazolin-4-amine], for which the figures for the IC50 in experiment [1] (values given in μM) and in experiment [2] were more than 20 µM and 438 nM, respectively.

`COc1cc2nc(C)nc(NC(C)c3ccc(-c4ccccc4CN4CCNCC4)s3)c2cc1OC` (stereo not shown) [Example 305, 6,7-dimethoxy-2-methyl-N-[1-{5-[2-(piperazin-1-ylmethyl)phenyl]thiophen-2-yl}ethyl]quinazolin-4-amine hydrochloride]: the values for the half-inhibitory concentration (IC50) in experiment [1] (values given in μM) and in experiment [2] were more than 20 µM and 58.4 nM, respectively.

Turning to `COc1cc2nc(C)nc(NC(C)c3ccc(-c4ccccc4CNCC(=O)N4CCOCC4)s3)c2cc1OC` (stereo not shown) [Example 285, 2-{[2-(5-{1-[(6,7-dimethoxy-2-methylquinazolin-4-yl)amino]ethyl}thiophen-2-yl)benzyl]amino}-1-(morpholin-4-yl)ethanone], the IC50 in experiment [1] (values given in μM) is more than 20 µM; in experiment [2], 161 nM.

For `CNCc1ccccc1-c1cccc([C@@H](C)Nc2nc(C)nc3cc(OC)c(OC)cc23)c1` [Example 268, 6,7-dimethoxy-2-methyl-N-[(1R)-1-{2′-[(methylamino)methyl]biphenyl-3-yl}ethyl]quinazolin-4-amine], the IC50 was more than 20 µM in experiment [1] (values given in μM) and 189 nM in experiment [2].

Take `COc1cc2nc(C)nc(NC(C)c3ccc(-c4ccc(F)cc4CNC(=O)c4cnc[nH]4)s3)c2cc1OC` (stereo not shown) [Example 294, N-[2-(5-{1-[(6,7-dimethoxy-2-methylquinazolin-4-yl)amino]ethyl}thiophen-2-yl)-5-fluorobenzyl]-1H-imidazole-5-carboxamide]: the half-maximal inhibitory concentration (IC50) was more than 20 µM in experiment [1] (values given in μM) and 8580 nM in experiment [2].

In the case of `COc1cc2nc(C)nc(NC(C)c3cccc4scnc34)c2cc1OC` (stereo not shown) [Example 14, N-[1-(1,3-benzothiazol-4-yl)ethyl]-6,7-dimethoxy-2-methylquinazolin-4-amine], the values for the half-inhibitory concentration (IC50) in experiment [1] (values given in μM) and in experiment [2] were more than 20 µM and 1830 nM, respectively.

With `COc1cc2nc(C)nc(NC(C)c3ccc(-c4ccc(F)cc4CNC(=O)CNc4ccccc4)s3)c2cc1OC` (stereo not shown) [Example 299, N-[2-(5-{1-[(6,7-dimethoxy-2-methylquinazolin-4-yl)amino]ethyl}thiophen-2-yl)-5-fluorobenzyl]-N^2-phenylglycinamide], the IC50 in experiment [1] (values given in μM) is more than 20 µM; in experiment [2], 1880 nM.

Regarding `COc1cc2nc(C)nc(NC(C)c3cccc4sc(C)cc34)c2cc1OC` (stereo not shown) [Example 330, 6,7-dimethoxy-2-methyl-N-[1-(2-methyl-1-benzothiophen-4-yl)ethyl]quinazolin-4-amine], the results for the half-inhibitory concentration (IC50) in experiment [1] (values given in μM) and in experiment [2] were more than 20 µM and 547 nM, respectively.

As to `COc1cc2nc(C)nc(N[C@H](C)c3cccc(-c4ccccc4CN)c3)c2cc1OC` [Example 258, N-{(1R)-1-[2′-(aminomethyl)biphenyl-3-yl]ethyl}-6,7-dimethoxy-2-methylquinazolin-4-amine], the IC50 was more than 20 µM in experiment [1] (values given in μM) and 245 nM in experiment [2].

As to `COc1cc2nc(C)nc(NC(C)c3ccc(-c4ccc(F)cc4CNC(C)=O)s3)c2cc1OC` (stereo not shown) [Example 307, N-[2-(5-{1-[(6,7-dimethoxy-2-methylquinazolin-4-yl)amino]ethyl}thiophen-2-yl)-5-fluorobenzyl]acetamide], the IC50 in experiment [1] (values given in μM) is more than 20 µM; in experiment [2], 780 nM.

Take `COc1cc2nc(C)nc(NC(C)c3ccc(-c4ccc(CN)cc4)s3)c2cc1OC` (stereo not shown) [Example 266, N-[1-{5-[4-(aminomethyl)phenyl]thiophen-2-yl}ethyl]-6,7-dimethoxy-2-methylquinazolin-4-amine]: the figures for the IC50 in experiment [1] (values given in μM) and in experiment [2] were more than 20 µM and 3740 nM, respectively.

For `COc1cc2nc(C)nc(NC(C)c3ccc(-c4cccc(CN)c4)s3)c2cc1OC` (stereo not shown) [Example 265, N-[1-{5-[3-(aminomethyl)phenyl]thiophen-2-yl}ethyl]-6,7-dimethoxy-2-methylquinazolin-4-amine], the figures for the half-inhibitory concentration (IC50) in experiment [1] (values given in μM) and in experiment [2] were more than 20 µM and 1110 nM, respectively.

For `COc1cc2nc(C)nc(NC(C)c3ccc(-c4ccccc4CNCC(=O)N4CCc5ccccc5C4)s3)c2cc1OC` (stereo not shown) [Example 303, 1-(3,4-dihydroisoquinolin-2(1H)-yl)-2-{[2-(5-{1-[(6,7-dimethoxy-2-methylquinazolin-4-yl)amino]ethyl}thiophen-2-yl)benzyl]amino}ethanone], the IC50 in experiment [1] (values given in μM) is more than 20 µM; in experiment [2] it was 880 nM.

For `COc1cc2nc(C)nc(N[C@H](C)c3cccc(-c4cn[nH]c4C)c3)c2cc1OC` [Example 335, 6,7-dimethoxy-2-methyl-N-{(1R)-1-[3-(5-methyl-1H-pyrazol-4-yl)phenyl]ethyl}quinazolin-4-amine], the figures for the IC50 in experiment [1] (values given in μM) and in experiment [2] were more than 20 µM and 564 nM, respectively.

For the compound `COc1cc2nc(C)nc(N[C@H](C)c3cccc(-c4ccn[nH]4)c3)c2cc1OC` [Example 337, 6,7-dimethoxy-2-methyl-N-{(1R)-1-[3-(1H-pyrazol-5-yl)phenyl]ethyl}quinazolin-4-amine], the IC50 is more than 20 µM in experiment [1] (values given in μM) and 1350 nM in experiment [2].

For the compound `CNCc1ccccc1-c1cc(C(C)Nc2nc(C)nc3cc(OC)c(OC)cc23)cs1` (stereo not shown) [Example 263, 6,7-dimethoxy-2-methyl-N-[1-(5-{2-[(methylamino)methyl]phenyl}thiophen-3-yl)ethyl]quinazolin-4-amine], the IC50 in experiment [1] (values given in μM) was more than 20 µM; in experiment [2], 324 nM.

As to `COc1cc2nc(C)nc(NC(C)c3csc(-c4ccccc4CN)c3)c2cc1OC` (stereo not shown) [Example 259, N-[1-{5-[2-(aminomethyl)phenyl]thiophen-3-yl}ethyl]-6,7-dimethoxy-2-methylquinazolin-4-amine], the half-inhibitory concentration (IC50) is more than 20 µM in experiment [1] (values given in μM) and 650 nM in experiment [2].

For the compound `COc1cc2nc(C)nc(N[C@H](C)c3cccc(-c4ccc(F)cc4CN)c3)c2cc1OC` [Example 274, N-{(1R)-1-[2′-(aminomethyl)-4′-fluorobiphenyl-3-yl]ethyl}-6,7-dimethoxy-2-methylquinazolin-4-amine], the IC50 was more than 20 µM in experiment [1] (values given in μM) and 214 nM in experiment [2].

For the compound `COc1cc2nc(C)nc(N[C@H](C)c3cccc(-c4ccnn4C)c3)c2cc1OC` [Example 339, 6,7-dimethoxy-2-methyl-N-{(1R)-1-[3-(1-methyl-1H-pyrazol-5-yl)phenyl]ethyl}quinazolin-4-amine], the IC50 in experiment [1] (values given in μM) was more than 20 µM; in experiment [2], 1990 nM.

As to `COc1cc2nc(C)nc(NC(C)c3nccc4sccc34)c2cc1OC` (stereo not shown) [Example 333, 6,7-dimethoxy-2-methyl-N-[1-(thieno[3,2-c]pyridin-4-yl)ethyl]quinazolin-4-amine], the IC50 in experiment [1] (unit inferred) was 16.4 µM; in experiment [2], 14800 nM.

In the case of `COc1cc2nc(C)nc(N[C@H](C)c3cccc(-n4ccnc4)c3)c2cc1OC` [Example 340, N-{(1R)-1-[3-(1H-imidazol-1-yl)phenyl]ethyl}-6,7-dimethoxy-2-methylquinazolin-4-amine], the IC50 is more than 20 µM in experiment [1] (values given in μM) and 1390 nM in experiment [2].

Regarding `COc1cc2nc(C)nc(N[C@H](C)c3cccc(-c4cnc5n4CCC5)c3)c2cc1OC` [Example 261, N-{(1R)-1-[3-(6,7-dihydro-5H-pyrrolo[1,2-a]imidazol-3-yl)phenyl]ethyl}-6,7-dimethoxy-2-methylquinazolin-4-amine], the IC50 in experiment [1] (values given in μM) is more than 20 µM; in experiment [2], 1100 nM.
